{
  "source": "patent US12570614B2",
  "about": "“Phenyl amino pyrimidine compounds and uses thereof” (GlaxoSmithKline LLC, priority 2007, dated 2026)",
  "system": "Ba/F3 TelJAK2 cells",
  "assay": "Subcutaneous tumour model of Ba/F3 TelJAK2 cells in nude mice",
  "assay_type": "in vivo, mouse",
  "settings": "5 mg/kg i.v. 3× weekly, after 14 days of dosing, t-test p<0.05",
  "experimental": "Dosing commenced 11 days post-tumour cell inoculation, when tumours were palpable (mean tumour volume of 6 mm^3). Tumour dimensions were measured twice weekly.",
  "data": [
    {"smiles": "CC(=O)O[C@H]1C(=O)[C@@]2(C)[C@H]([C@H](OC(=O)c3ccccc3)[C@]3(O)C[C@H](OC(=O)[C@H](O)[C@@H](NC(=O)c4ccccc4)c4ccccc4)C(C)=C1C3(C)C)[C@]1(OC(C)=O)CO[C@@H]1C[C@@H]2O", "note": "[Taxol, reference compound]", "values": [
      {"measurement": "tumour volumes compared to Vehicle Control Treated Group", "value": "smaller tumour volumes"}
    ]}
  ]
}
